Patent US20180311244A1, “METHODS OF TREATING LIVER DISEASE” (Gilead Sciences, Inc., priority 2017, published 2018)
Marks after values point to notes of the source that are not given here.

Legend:
[1] = system: subjects with NASH; experiment: 12-week study of ASK1 inhibitor, ACC inhibitor and combination in subjects with NASH; format: in vivo, human
Experimental: Centrally-read PDFF and MRE, and serum fibrosis markers were measured at baseline (BL), W4 and W12. Deuterated water was administered to measure fractional synthesis of lipids (de novo lipogenesis [DNL]).

[2] = system: rodent model of non-alcoholic steatohepatitis (NASH); experiment: Picrosirius Red staining of liver in CDHFD rat NASH model; format: in vivo; conditions: CDHFD rats, 12 weeks; ASK1i 0.03% in chow, Formula (III) 10 mg/kg QD PO; FIG. 7
Experimental: The following study was conducted to evaluate the efficacy of the combination of an ASK1 inhibitor (ASK1i) and an ACC inhibitor (ACCi) in a rodent model of non-alcoholic steatohepatitis (NASH) relative to the efficacy of the individual agents alone in the model. In this model, NASH was induced in male Wistar rats by administration of a choline-deficient high fat diet (CDHFD).
Male Wistar (Crl:Wi(Han)) rats (aged 8-9 weeks at arrival) were acquired from Charles River, Raleigh, N.C. and used in the current studies. This study complie with all applicable sections of the Final Rules of the Animal Welfare Act regulations (Code of Federal Regulations, Title 9), the Public Health Service Policy on Humane Care and Use of Laboratory Animals from the Office of Laboratory Animal Welfare, and the Guide for the Care and Use of Laboratory Animals from the National Research Council. […]
Whole slide images of Picrosirius Red (PSR) stained slides were captured using a Leica AT2 scanner at 40× magnification. […] Quantitative image analysis was performed on the whole slide images using Visiopharm image analysis software (Visiopharm, Hoersholm, Denmark) to determine the extent and intensity of PSR. The total PSR-stained area was measured and expressed as a percentage of total liver area stained.

[3] = W12, orally QD, Formula (II) 18 mg, Formula (IV) 20 mg, combination 18/20 mg
[4] = serum, W12, orally QD, Formula (II) 18 mg, Formula (IV) 20 mg, combination 18/20 mg

`COc1ccccc1[C@H](Cn1c(=O)n(C(C)(C)C(=O)O)c(=O)c2c(C)c(-c3ncco3)sc21)OC1CCOCC1` [Formula (IV)] was tested, and the “PDFF compared with BL (in words)” value ([1]; 12 weeks orally QD, Formula (IV) p=0.006, combination p<0.001) was “significant improvements”, the “ALT compared with BL (in words)” value ([1]; 12 weeks orally QD, combination p=0.019) was “non-significant reductions” and the “PIII-NP compared with BL (in words)” value ([1]; 12 weeks orally QD, combination p=0.057) was “non-significant reductions”. For the same compound, the “TIMP-1 compared with BL (in words)” value ([1]; 12 weeks orally QD, p=0.049) was “significant improvements”, the “Grade 2 or higher AE, % of subjects” value ([1]; 12 weeks, orally QD, Formula (II) 18 mg, Formula (IV) 20 mg, combination 18/20 mg) was 40% and the “ALT, median relative (%) change from BL” value [1, 3] was −33.5%. The “GGT, median relative (%) change from BL” value [1, 3] was −1.6%, the “MRE, median relative (%) change from BL” value [1, 3] was −8.9% and the “MRI-PDFF, median relative (%) change from BL” value [1, 3] was −42.7* %. For the same compound, the “≥30% reduction in MRI-PDFF, % of subjects” value [1, 3] was 70%, the “PIII-NP, median relative (%) change from BL” value [1, 4] was −11.9% and the “TIMP-1, median relative (%) change from BL” value [1, 4] was −11.6* %.
For `COc1ccccc1[C@H](Cn1c(=O)n(C(C)(C)C(=O)O)c(=O)c2c(C)c(-c3ncco3)sc21)O[C@H]1CC[C@@H](O)CC1` [Formula (III)], the “Reduction of hepatic PSR (% area)” value [2] was 50%.
